Key:
Assay in all cases: relative viability (nuclei count vs DMSO), 5 days (fraction); higher = more cells survive
NCI-H1666 = test system: NCI-H1666
Method in brief: (§1)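 Relative viability equals treated-well nuclei counts divided by vehicle-well nuclei counts. Counts came from 4× images of lung cancer cell lines grown in 1536-well plates for 5 days after pin-tool dosing on the day after seeding. Dosing used one drug alone or a fixed anchor-drug dose plus five library-drug doses (not always all listed) in √10 steps, and values are medians of duplicate plates.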

PC-14 = test system: PC-14
Method in brief: as §1

BEN = test system: BEN
Method in brief: as §1

NCI-H520 = test system: NCI-H520
Method in brief: as §1

ABC-1 = test system: ABC-1
Method in brief: as §1

NCI-H358 = test system: NCI-H358
Method in brief: as §1

NCI-H23 = test system: NCI-H23
Method in brief: as §1

NCI-H596 = test system: NCI-H596
Method in brief: as §1

NCI-H2405 = test system: NCI-H2405
Method in brief: as §1

NCI-H1975 = test system: NCI-H1975
Method in brief: as §1

HOP-62 = test system: HOP-62
Method in brief: as §1

HCC-827 = test system: HCC-827
Method in brief: as §1

O=C(O)CCCCC(CCSCc1ccccc1)SCc1ccccc1 (configuration not stated) [CPI-613] + Nc1ncn([C@H]2C[C@H](O)[C@@H](CO)O2)c(=O)n1 [Decitabine] (partner 2 µM)
relative viability (NCI-H1666; first compound 5 µM): 0.676 | relative viability (NCI-H1666; first compound 15.81 µM): 0.601 | relative viability (NCI-H1666; first compound 50 µM): 0.798 | relative viability (NCI-H1666; first compound 158.11 µM): 0.639 | relative viability (NCI-H1666; first compound 500 µM): 0.509 | relative viability (PC-14; first compound 5 µM): 0.266 | relative viability (PC-14; first compound 15.81 µM): 0.201 | relative viability (PC-14; first compound 50 µM): 0.23 | relative viability (PC-14; first compound 158.11 µM): 0.109 | relative viability (PC-14; first compound 500 µM): 0.0133 | relative viability (BEN; first compound 5 µM): 0.773 | relative viability (BEN; first compound 15.81 µM): 0.649 | relative viability (BEN; first compound 50 µM): 0.802 | relative viability (BEN; first compound 158.11 µM): 0.625 | relative viability (BEN; first compound 500 µM): 0.608 | relative viability (NCI-H520; first compound 5 µM): 0.48 | relative viability (NCI-H520; first compound 15.81 µM): 0.502 | relative viability (NCI-H520; first compound 50 µM): 0.428 | relative viability (NCI-H520; first compound 158.11 µM): 0.271 | relative viability (NCI-H520; first compound 500 µM): 0.149 | relative viability (ABC-1; first compound 5 µM): 1.18 | relative viability (ABC-1; first compound 15.81 µM): 1.28 | relative viability (ABC-1; first compound 50 µM): 1.37 | relative viability (ABC-1; first compound 158.11 µM): 0.698 | relative viability (ABC-1; first compound 500 µM): 0.864 | relative viability (NCI-H358; first compound 5 µM): 0.235 | relative viability (NCI-H358; first compound 15.81 µM): 0.2 | relative viability (NCI-H358; first compound 50 µM): 0.219 | relative viability (NCI-H358; first compound 158.11 µM): 0.136 | relative viability (NCI-H358; first compound 500 µM): 0.02 | relative viability (NCI-H23; first compound 5 µM): 0.34 | relative viability (NCI-H23; first compound 15.81 µM): 0.321 | relative viability (NCI-H23; first compound 50 µM): 0.326 | relative viability (NCI-H23; first compound 158.11 µM): 0.155 | relative viability (NCI-H23; first compound 500 µM): 0.0289 | relative viability (NCI-H596; first compound 5 µM): 1.13 | relative viability (NCI-H596; first compound 15.81 µM): 0.965 | relative viability (NCI-H596; first compound 50 µM): 0.98 | relative viability (NCI-H596; first compound 158.11 µM): 0.866 | relative viability (NCI-H596; first compound 500 µM): 0.111 | relative viability (NCI-H2405; first compound 5 µM): 0.754 | relative viability (NCI-H2405; first compound 15.81 µM): 0.72 | relative viability (NCI-H2405; first compound 50 µM): 0.709 | relative viability (NCI-H2405; first compound 158.11 µM): 0.674 | relative viability (NCI-H2405; first compound 500 µM): 0.535 | relative viability (NCI-H1975; first compound 5 µM): 0.391 | relative viability (NCI-H1975; first compound 15.81 µM): 0.413 | relative viability (NCI-H1975; first compound 50 µM): 0.399 | relative viability (NCI-H1975; first compound 158.11 µM): 0.412 | relative viability (NCI-H1975; first compound 500 µM): 0.0581 | relative viability (HOP-62; first compound 5 µM): 0.186 | relative viability (HOP-62; first compound 15.81 µM): 0.235 | relative viability (HOP-62; first compound 50 µM): 0.191 | relative viability (HOP-62; first compound 158.11 µM): 0.173 | relative viability (HOP-62; first compound 500 µM): 0.0675 | relative viability (HCC-827; first compound 5 µM): 0.363 | relative viability (HCC-827; first compound 15.81 µM): 0.31

From the supplement of paper PMC10307832
